Data published in US20100075965A1, “PI3 KINASE INHIBITORS AND METHODS OF THEIR USE” (Novartis AG, priority 2006, published 2010).

Legend:
[1] = test system: A2780 cells; assay: Viability assay in A2780 (Cell Titer Glo); assay type: cell-based, human; conditions: Homo sapiens; A2780 cells; read-out: A2780 Cell prolif. EC50
Summary of the method: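 EC50 values come from Cell Titer Glo luminescence after 72 hrs of compound exposure at 37° C, run in duplicate. A2780 cells were plated at 1,000 per well in DMEM with 10% FBS and dosed with 3-fold serial dilutions.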

[2] = test system: pSer473-Akt in A2780 cells; assay: pSer473 Akt assay to monitor PI3K pathway in A2780 cells (MSD); assay type: cell-based; conditions: Homo sapiens; A2780 cells; read-out: A2780 pAKT 473 EC50
Summary of the method: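 EC50 is derived from percent inhibition of Akt Ser473 phosphorylation, normalised to total Akt and compared with DMSO-only wells, read by MSD immunoassay. Lysates came from A2780 cells plated overnight at 15,000/well and exposed to compound for one hour at 37 °C.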

[3] = biological target: PI3 K Alpha (Homo sapiens, UniProt P42336); assay: PI3 kinase phosphorylation assays (homogenous solution phase, one step solid phase, ATP depletion/KinaseGlo); assay type: biochemical; conditions: read-out: PI3K Alpha IC50
Chain of PI3 K Alpha (P42336 whole entry): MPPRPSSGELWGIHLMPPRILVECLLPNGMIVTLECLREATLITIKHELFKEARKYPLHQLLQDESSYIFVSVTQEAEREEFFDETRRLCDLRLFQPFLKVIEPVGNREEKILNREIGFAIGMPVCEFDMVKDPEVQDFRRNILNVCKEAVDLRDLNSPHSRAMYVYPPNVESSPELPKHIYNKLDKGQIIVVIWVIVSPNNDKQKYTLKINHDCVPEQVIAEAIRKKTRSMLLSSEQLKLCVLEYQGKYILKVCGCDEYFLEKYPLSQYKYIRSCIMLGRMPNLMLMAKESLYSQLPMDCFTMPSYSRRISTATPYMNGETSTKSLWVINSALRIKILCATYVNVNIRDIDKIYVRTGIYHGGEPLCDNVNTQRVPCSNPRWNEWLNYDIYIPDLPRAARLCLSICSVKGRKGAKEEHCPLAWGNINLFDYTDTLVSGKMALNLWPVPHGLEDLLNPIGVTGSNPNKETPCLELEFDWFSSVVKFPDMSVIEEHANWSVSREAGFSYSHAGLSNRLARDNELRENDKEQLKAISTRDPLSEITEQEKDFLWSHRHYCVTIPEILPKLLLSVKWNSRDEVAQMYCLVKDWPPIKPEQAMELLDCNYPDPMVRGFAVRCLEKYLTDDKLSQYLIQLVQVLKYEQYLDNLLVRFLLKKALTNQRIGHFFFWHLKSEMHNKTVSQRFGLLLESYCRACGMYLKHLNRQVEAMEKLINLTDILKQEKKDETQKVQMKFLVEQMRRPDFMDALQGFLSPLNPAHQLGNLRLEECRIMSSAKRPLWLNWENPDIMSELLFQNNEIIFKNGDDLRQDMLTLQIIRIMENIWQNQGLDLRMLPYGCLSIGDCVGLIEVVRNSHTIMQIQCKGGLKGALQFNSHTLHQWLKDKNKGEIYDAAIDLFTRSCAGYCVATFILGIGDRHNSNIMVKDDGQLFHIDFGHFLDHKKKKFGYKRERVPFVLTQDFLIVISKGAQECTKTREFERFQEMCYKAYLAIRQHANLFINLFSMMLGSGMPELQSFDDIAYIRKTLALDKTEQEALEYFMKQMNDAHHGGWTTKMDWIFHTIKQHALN
Chain of PI3 K Alpha (P27986 whole entry partner): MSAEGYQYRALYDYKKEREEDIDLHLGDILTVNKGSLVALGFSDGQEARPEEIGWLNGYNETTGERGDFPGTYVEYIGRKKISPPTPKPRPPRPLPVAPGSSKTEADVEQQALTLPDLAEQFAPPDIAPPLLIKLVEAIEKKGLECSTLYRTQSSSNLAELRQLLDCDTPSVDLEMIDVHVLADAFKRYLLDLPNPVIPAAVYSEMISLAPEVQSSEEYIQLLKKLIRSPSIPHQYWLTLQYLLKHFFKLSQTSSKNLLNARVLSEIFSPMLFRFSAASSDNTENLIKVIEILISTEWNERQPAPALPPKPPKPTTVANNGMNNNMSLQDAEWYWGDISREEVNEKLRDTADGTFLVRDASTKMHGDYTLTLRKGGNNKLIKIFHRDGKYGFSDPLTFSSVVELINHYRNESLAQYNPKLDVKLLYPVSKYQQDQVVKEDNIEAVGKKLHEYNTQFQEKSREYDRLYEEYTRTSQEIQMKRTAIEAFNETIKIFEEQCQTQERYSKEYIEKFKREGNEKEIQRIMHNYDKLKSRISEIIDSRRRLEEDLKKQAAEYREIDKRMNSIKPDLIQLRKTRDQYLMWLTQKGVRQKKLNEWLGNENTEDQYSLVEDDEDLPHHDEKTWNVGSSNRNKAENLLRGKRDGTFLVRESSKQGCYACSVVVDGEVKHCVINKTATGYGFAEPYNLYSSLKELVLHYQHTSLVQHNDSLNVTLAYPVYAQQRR

Row | Compound | EC50 [1] [nM] | EC50 [2] [nM] | IC50 [3] [nM]
1 | CC(=O)Nc1cn2cc(-c3cnc(N)c(-c4ccccc4F)c3)ccc2n1 [Example 114, N-(6-(6-amino-5-(2-fluorophenyl)pyridin-3-yl)imidazo[1,2-a]pyridin-2-yl)acetamide] | < 10000 | < 1000 | < 1000
2 | CC(=O)Nc1cn2nc(-c3cnc(N)c(-c4ccccc4Oc4ccccc4)c3)ccc2n1 [Example 115, N-(6-(6-amino-5-(2-phenoxyphenyl)pyridin-3-yl)imidazo[1,2-b]pyridazin-2-yl)acetamide] | < 10000 | < 1000 | < 1000
3 | Nc1ncc(-c2ccc3nc(NC(=O)C4CNC4)cn3n2)cc1C(F)(F)F [Example 116, N-(6-(6-amino-5-(trifluoromethyl)pyridin-3-yl)imidazo[1,2 b]pyridazin-2-yl)azetidine-3-carboxamide] | < 10000 | < 1000 | < 1000
4 | COc1ccc(C#Cc2c(NC(C)=O)nc3ccc(-c4cnc(N)c(C(F)(F)F)c4)cn23)cc1 [Example 117, N-(6-(6-amino-5-(trifluoromethyl)pyridin-3-yl)-3-((4-methoxyphenyl)ethynyl)imidazo[1,2-a]pyridin-2-yl)acetamide] | < 10000 | < 1000 | < 1000
5 | CCOCC(=O)Nc1cn2nc(-c3cnc(N)c(C(F)(F)F)c3)ccc2n1 [Example 118, N-(6-(6-amino-5-(trifluoromethyl)pyridin-3-yl)imidazo[1,2-b]pyridazin-2-yl)-2-ethoxyacetamide] | < 10000 | < 1000 | < 1000
6 | CC(=O)Nc1cn2cc(-c3cnc(N)c(-c4ccccc4C(F)(F)F)c3)ccc2n1 [Example 120, N-(6-(6-amino-5-(2-(trifluoromethyl)phenyl)pyridin-3-yl)imidazo[1,2-a]pyridin-2-yl)acetamide] | < 10000 | < 1000 | < 1000
7 | CC(=O)Nc1cn2cc(-c3cnc(N)c(-c4ccccc4OC(F)(F)F)c3)ccc2n1 [Example 121, N-(6-(6-amino-5-(2-(trifluoromethoxy)phenyl)pyridin-3-yl)imidazo[1,2-a]pyridin-2-yl)acetamide] | < 10000 | < 1000 | < 1000
8 | CNCC(=O)Nc1cn2cc(-c3cnc(N)c(OCCOC)n3)ccc2n1 [Example 122, N-(6-(5-amino-6-(2-methoxyethoxy)pyrazin-2-yl)imidazo[1,2-a]pyridin-2-yl)-2-(methylamino) acetamide] | < 10000 | < 1000 | < 1000
9 | Nc1ncc(-c2ccc3nc(NC(=O)c4cccnc4)cn3c2)cc1C(F)(F)F [Example 123, N-(6-(6-amino-5-(trifluoromethyl)pyridin-3-yl)imidazo[1,2-a]pyridin-2-yl)nicotinamide] | < 10000 | < 1000 | < 1000
10 | CC(=O)Nc1cn2cc(-c3cnc(N)c(-c4ccccc4)c3)ccc2n1 [Example 124, N-(6-(6-amino-5-phenylpyridin-3-yl)imidazo[1,2-a]pyridin-2-yl)acetamide] | < 10000 | < 1000 | < 1000
11 | Nc1ncc(-c2ccc3nc(NC(=O)c4ccc(N5CCNCC5)nc4)cn3c2)cc1C(F)(F)F [Example 126, N-(6-(6-amino-5-(trifluoromethyl)pyridin-3-yl)imidazo[1,2-a]pyridin-2-yl)-6-(piperazin-1-yl)nicotinamide] | < 10000 | < 1000 | < 1000
12 | CC(=O)Nc1nc2ccc(-c3cnc(N)c(C(F)(F)F)c3)cn2c1C#Cc1ccc(C)cc1 [Example 127, N-(6-(6-amino-5-(trifluoromethyl)pyridin-3-yl)-3-(p-tolylethynyl)imidazo[1,2-a]pyridin-2-yl)acetamide] | < 10000 | < 1000 | < 1000
13 | CC(=O)Nc1cn2cc(-c3cnc(N)c(OC4CN(C(=O)c5ccccc5)C4)n3)ccc2n1 [Example 128, N-(6-(5-amino-6-(1-benzoylazetidin-3-yloxy)pyrazin-2-yl)imidazo[1,2-a]pyridin-2-yl)acetamide] | < 10000 | < 1000 | < 1000
14 | COc1nc(-c2ccc3nc(NC(C)=O)cn3n2)cnc1N [Example 130, N-(6-(5-amino-6-methoxypyrazin-2-yl)imidazo[1,2-b]pyridazin-2-yl)acetamide] | < 10000 | < 1000 | < 1000
15 | CC(=O)Nc1cn2cc(-c3cnc(N)c(N4CCN(C)CC4)n3)ccc2n1 [Example 131, N-(6-(5-amino-6-(4-methylpiperazin-1-yl)pyrazin-2-yl)imidazo[1,2-a]pyridin-2-yl)acetamide] | < 10000 | < 1000 | < 1000

Second part, the molecule after the results:

Row | EC50 [1] [nM] | EC50 [2] [nM] | IC50 [3] [nM] | Compound
16 | < 1000 | < 1000 | < 1000 | CC(=O)Nc1cn2nc(-c3cnc(N)c(-c4ccn(C)n4)c3)ccc2n1 [Example 95, N-(6-(6-amino-5-(1-methyl-1H-pyrazol-3-yl)pyridin-3-yl)imidazo[1,2-b]pyridazin-2-yl)acetamide]
17 | < 1000 | < 1000 | < 1000 | CCC(=O)Nc1cn2nc(-c3cnc(N)c(C(F)(F)F)c3)ccc2n1 [Example 96, N-(6-(6-amino-5-(trifluoromethyl)pyridin-3-yl)imidazo[1,2-b]pyridazin-2-yl)propionamide]
18 | < 1000 | < 10000 | < 1000 | CC(=O)Nc1cn2cc(-c3cnc(N)c(-c4ccc(OC(F)(F)F)cc4)c3)ccc2n1 [Example 97, N-(6-(6-amino-5-(4-(trifluoromethoxy)phenyl)pyridin-3-yl)imidazo[1,2-a]pyridin-2-yl)acetamide]
19 | < 1000 | < 1000 | < 1000 | CC(C)(C)OC(=O)N1CC[C@H](OCC(=O)Nc2cn3nc(-c4cnc(N)c(C(F)(F)F)c4)ccc3n2)C1 [Example 98, (S)-tert-butyl 3-(2-(6-(6-amino-5-(trifluoromethyl)pyridin-3-yl)imidazo[1,2-b]pyridazin-2-ylamino)-2-oxoethoxy) pyrrolidine-1-carboxylate]
20 | < 1000 | < 1000 | < 1000 | COc1ccc(CC(=O)Nc2cn3cc(-c4cnc(N)c(C(F)(F)F)c4)ccc3n2)cc1 [Example 99, N-(6-(6-amino-5-(trifluoromethyl)pyridin-3-yl)imidazo[1,2-a]pyridin-2-yl)-2-(4-methoxyphenyl) acetamide]
21 | < 1000 | < 1000 | < 1000 | CC(=O)Nc1cn2cc(-c3cnc(N)c(C(=O)NCCN4CCCC4)n3)ccc2n1 [Example 100, 6-(2-acetamido-imidazo[1,2-a]pyridin-6-yl)-3-amino-N-(2-(pyrrolidin-1-yl)ethyl) pyrazine-2-carboxamide]
22 | < 1000 | < 1000 | < 1000 | CC(C)(C)OC(=O)N1CC[C@@H](OCC(=O)Nc2cn3nc(-c4cnc(N)c(C(F)(F)F)c4)ccc3n2)C1 [Example 102, (R)-tert-butyl 3-(2-(6-(6-amino-5-(trifluoromethyl)pyridin-3-yl)imidazo[1,2-b]pyridazin-2-ylamino)-2-oxoethoxy) pyrrolidine-1-carboxylate]
23 | < 1000 | < 1000 | < 1000 | CC(=O)Nc1cn2nc(-c3cnc(N)c(C(=O)NCCNC(=O)OC(C)(C)C)c3)ccc2n1 [Example 103, tert-butyl 2-(5-(2-acetamido-imidazo[1,2-b]pyridazin-6-yl)-2-aminonicotin-amido)ethyl-carbamate]
24 | < 1000 | < 1000 | < 1000 | CCN1CCCCC1CCC(=O)Nc1cn2nc(-c3cnc(N)c(C(F)(F)F)c3)ccc2n1 (stereo not drawn) [Example 104, N-(6-(6-amino-5-(trifluoromethyl)pyridin-3-yl)imidazo[1,2-b]pyridazin-2-yl)-3-(1-ethylpiperidin-2-yl)propanamide]
25 | < 1000 | < 1000 | < 1000 | CC(=O)Nc1cn2cc(-c3cnc(N)c(-c4ccccc4N4CCOCC4)c3)ccc2n1 [Example 105, N-(6-(6-amino-5-(2-morpholino-phenyl)pyridin-3-yl)imidazo[1,2-a]pyridin-2-yl)acetamide]
26 | < 1000 | < 1000 | < 1000 | CC(=O)Nc1cn2nc(-c3cnc(N)c(-c4ccc(C(F)(F)F)cc4)c3)ccc2n1 [Example 107, N-(6-(6-amino-5-(4-(trifluoromethyl)phenyl)pyridin-3-yl)imidazo[1,2-b]pyridazin-2-yl)acetamide]
27 | < 1000 | < 1000 | < 1000 | Nc1ncc(-c2ccc3nc(NC(=O)CCCN4CCOCC4)cn3n2)cc1C(F)(F)F [Example 108, N-(6-(6-amino-5-(trifluoromethyl)pyridin-3-yl)imidazo[1,2-b]pyridazin-2-yl)-4-morpholino-butanamide]
28 | < 1000 | < 1000 | < 1000 | Nc1ncc(-c2ccc3nc(NC(=O)Cc4cccc5ccccc45)cn3c2)cc1C(F)(F)F [Example 110, N-(6-(6-amino-5-(trifluoromethyl)pyridin-3-yl)imidazo[1,2-a]pyridin-2-yl)-2-(naphthalen-1-yl)acetamide]
29 | < 10000 | < 1000 | < 1000 | CC(=O)Nc1cn2cc(-c3cnc(N)c(-c4ccccc4)n3)ccc2n1 [Example 113, N-(6-(5-amino-6-phenylpyrazin-2-yl)imidazo[1,2-a]pyridin-2-yl)acetamide]
